Here are results for five compounds from patent publication US5576341A, “2-[[2-(N-isobutyl-N-methyl)amino]benzylsulfinyl]-benzimidazole as antimicrobial agent” (Nippon Chemiphar Co., Ltd., priority 1993, dated 1996).

Converted amounts (≈) assume the structure as drawn.

Assay [1] relates to Helicobacter pylori ATCC 43526. In words: MIC by agar plate dilution method (Experimental 2), ATCC 43526. The following applies: ATCC43526, 144 h.
In assay [2] the test system is Helicobacter pylori ATCC 43579. In words: MIC by agar plate dilution method (Experimental 2), ATCC 43579. The note with it: ATCC43579, 144 h.
The test system of assay [3] is Helicobacter pylori ATCC 43629. In words: MIC by agar plate dilution method (Experimental 2), ATCC 43629. The note with it: ATCC43629, 144 h.
Assay [4] concerns Helicobacter pylori. In words: microbe, parasite or virus in culture. The note with it: 144 h, read-out: MIC (minimal inhibitory concentration).
For assay [5], the system named is Helicobacter pylori Wild 1. The assay is described as follows: MIC by agar plate dilution method (Experimental 2), Wild 1. The note with it: WILD1, 144 h.
The test system of assay [6] is Helicobacter pylori Wild 1. The assay is described as follows: MIC by agar plate dilution method (Experimental 2), Wild 1 (first line). The following applies: WILD1, 144 h.
Assay [7] relates to Helicobacter pylori NCTC 11637. In words: MIC by agar plate dilution method (Experimental 2), NCTC 11637. The following applies: NCTC11637, 144 h.
The subject of assay [8] is Helicobacter pylori. The following applies: Antimicrobial Agents and Chemotherapy, March 1991, p.490-496; cited from earlier work.

As to `CN/C(=N/CCSCc1nc[nH]c1C)NC#N` [Cimetidine], the MIC in assay [1], in assay [2] and in assay [3] was 800 µg/mL (≈ 3170 µM) in each case.

As to `CC(C)CN(C)c1ccccc1C[S+]([O-])c1nc2ccccc2[nH]1` (stereo not drawn) [Compound (1), 2-[[2-(N-isobutyl-N-methyl)amino]benzylsulfinyl]benzimidazole], the MIC in assay [1] came to 25 µg/mL (≈ 73.2 µM); in assay [4], 12.5 µg/mL (≈ 36.6 µM); in assay [5], 50 µg/mL (≈ 146 µM); in assay [6] it was 50 µg/mL (≈ 146 µM); in assay [7], 25 µg/mL (≈ 73.2 µM); in assay [2], 25 µg/mL (≈ 73.2 µM). The same compound returned an MIC in assay [3] of 12.5 µg/mL (≈ 36.6 µM).

With `NC(N)=Nc1nc(CSCCC(N)=NS(N)(=O)=O)cs1` [Famotidine], the MIC was more than 800 µg/mL in assay [1], 800 µg/mL (≈ 2370 µM) in assay [2] and 800 µg/mL (≈ 2370 µM) in assay [3].

`COc1ccc2[nH]c([S+]([O-])Cc3ncc(C)c(OC)c3C)nc2c1` (stereo not drawn) [Omeprazole]: the MIC in assay [1] was determined as 12.5 µg/mL (≈ 36.2 µM); in assay [5], 50 µg/mL (≈ 145 µM); in assay [6], 50 µg/mL (≈ 145 µM); in assay [7], 50 µg/mL (≈ 145 µM); in assay [2], 12.5 µg/mL (≈ 36.2 µM); in assay [3], 12.5 µg/mL (≈ 36.2 µM). The “antimicrobial activity against Helicobacter pylori (in words)” value in assay [8] was “have antimicrobial activity against Helicobacter pylori”.

For the compound `Cc1c(OCC(F)(F)F)ccnc1C[S+]([O-])c1nc2ccccc2[nH]1` (stereo not drawn) [lansoprazole], in assay [8], the “antimicrobial activity against Helicobacter pylori (in words)” value is listed as “have antimicrobial activity against Helicobacter pylori”.
